Columns and labels:
human PCSK9 [1] = assay: PCSK9 AlphaLISA assay, PCSK9 lowering in WT7 cells; settings: WT7 cells (Huh7 stably over-expressing human PCSK9); secreted PCSK9 by AlphaLISA; overnight incubation (16-24 h); top concentration 20 μM; read-out: Cell Based PCSK9 IC50
Text: An in-vitro AlphaLISA assay (Perkin Elmer) was developed in order to quantitate the level of PCSK9 secreted into the cell culture media following compound treatment. To detect and measure PCSK9 protein an in-house generated anti-PCSK9 antibody was coupled to AlphaLISA acceptor beads by an external vendor (PerkinElmer) and a second internally developed anti-PCSK9 antibody with an epiptope distinct from that of the acceptor beads was biotinylated in house. Streptavidin coated-donor beads (Perkin Elmer) are also included in the assay mixture which then binds the biotinylated anti-PCSK9 antibody and in the presence of PCSK9 this donor complex and acceptor beads are brought into close proximity. […] The ability of compound to modulate PCSK9 protein levels in conditioned media by AlphaLISA was assessed in the human hepatocellular carcinoma cell line Huh7, stably over-expressing human PCSK9. […] Following plasmid transfection the stable WT7 clone was identified and maintained under Zeocin selection. Compound screening was performed in 384-well plates where WT7 cells were plated at a density of 7500 cells per well in 20 μL of tissue culture media containing compound in an eleven point, 0.5 log dilution format at a high treatment concentration of 20 μM in a final volume of 0.5% DMSO. In additional to these test compound conditions each screening plate also included wells that contained 20 μM puromycin as a positive assay control defined as high percent effect, HPE, as well as wells containing media in 0.5% DMSO as a negative treatment control defined as zero percent effect, ZPE. After overnight compound incubation (16-24 h) the tissue culture media was collected and an aliquot from each sample was transferred to individual wells of a 384-well white Optiplate (Perkin Elmer). The coupled antibodies and donor beads were added to the assay plates in a buffer composed of 30 mM Tris pH 7.4, 0.02% Tween-20 and 0.02% Casein. Anti-PCSK9 acceptor beads (final concentration of 10 μg/mL) and anti-PCSK9 biotinylated antibody (final concentration of 3 nM) were added and incubated for 30 minutes at room temperature followed by the addition of the streptavidin donor beads (final concentration 40 μg/mL) for an additional 60 minutes. Additionally a standard curve was generated where AlphaLISA reagents were incubated in wells spiked with recombinant human PCSK9 diluted in tissue culture media from 5000 ng/mL to 0.6 ng/mL. […] The test compound data were converted into percent effect, using the ZPE and HPE controls as 0% and 100% activity, respectively. The equation used for converting each well reading into percent effect was:
[formula] IC50 was then calculated and reported as the midpoint in the percent effect curve in molar units and the values are reported under the Cell Based PCSK9 IC50 (μM) column header within Table 1 Biological Data. Additionally, to monitor the selectivity of compound response for PCSK9 the level of a second secreted protein, Transferrin, was measured from the same conditioned media treated with test compound by AlphaLISA. […] To detect and quantify effects on Transferrin 0.01 mL of the culture media was transferred to a 384-well white Optiplate and 0.01 mL of media was added to bring the volume to 0.02 ml. Anti-Transferrin acceptor beads were added to a final concentration of 10 μg/mL, biotinylated anti-Transferrin at 3 nM and streptavidin donor beads at 40 μg/mL. Percent effect and IC50 for Transferrin was computed in a similar manner as that described for PCSK9.

human PCSK9 [2] = assay: Cell Free PCSK9 Assay (PCSK9-luciferase RNA translated in HeLa cell lysate); assay type: biochemical; settings: 30° C. for 45 minutes, luciferase readout, top concentration 100 μM
Protocol: In order to eliminate the permeability barrier inherent to the WT7 and SCHH cell-based assays a cell-free system was also established to access compound activity. […] The construct was then in-vitro transcribed using the MEGAscript T7 Kit (Life Technologies) and RNA subsequently purified incorporating the MEGAclear Kit (Life Technologies) according to manufacturer's protocols. […] Growth was in a 50 L wavebag at a rocker speed of 25 rpm and angle 6.1 with 5% CO2 and 0.2 LPM flow rate with cells harvested at a density of 2-2.5e6/ml. Lysates additionally contained 1 tablet of Roche cOmplete-EDTA protease inhibitors per 50 ml with tris(2-carboxyethyl)phosphine (Biovectra) substituted for dithiothreitol, and were clarified by an additional final centrifugation at 10,000 rpm in a Sorvall SS34 rotor at 4° C. for 10 minutes. Compound screening was performed in 384-well plates in an eleven point, 0.5 log dilution format at a top test compound concentration of 100 μM in a final volume of 0.5% DMSO. […] Upon assay completion 1 μL from each reaction solution was removed and transferred to a second 384-well Optiplate (Perkin Elmer) containing 24 μL of SteadyGlo (Promega) and signal intensity was measured on the Envision (Perkin Elmer) using the enhanced luminescence protocol. […] The test compound data were converted into percent effect, using the ZPE and HPE controls as 0% and 100% activity, respectively, applying Equation 1 above. IC50 was then calculated and reported as the midpoint in the percent effect curve in molar units and the values are reported under the Cell Free PCSK9 IC50 (μM) column header within Table 1 Biological Data.

Row | Compound | IC50 (human PCSK9 [1]) | IC50 (human PCSK9 [2])
1 | Cc1cccnc1N(C(=O)c1ccc(-c2cnn(C)c2C(=O)NS(C)(=O)=O)cc1)[C@@H]1CCCNC1 [Example 28, 1-methyl-4-(4-{(3-methylpyridin-2-yl)[(3R)-piperidin-3-yl]carbamoyl}phenyl)-N-(methylsulfonyl)-1H-pyrazole-5-carboxamide] | > 20 µM | 16.8 µM
2 | Cn1ncc(-c2ccc(C(=O)N(c3ncccc3Cl)[C@@H]3CCCNC3)cc2)c1C(=O)NS(=O)(=O)C(F)(F)F [Example 22, 4-(4-{(3-chloropyridin-2-yl)[(3R)-piperidin-3-yl]carbamoyl}phenyl)-1-methyl-N-[(trifluoromethyl)sulfonyl]-1H-pyrazole-5-carboxamide] | > 20 µM | 5.8 µM
3 | Cn1ncc(-c2ccc(C(=O)N(c3ncccc3Cl)[C@@H]3CCCNC3)cc2)c1C(=O)NS(C)(=O)=O [Example 27, 4-(4-{(3-chloropyridin-2-yl)[(3R)-piperidin-3-yl]carbamoyl}phenyl)-1-methyl-N-(methylsulfonyl)-1H-pyrazole-5-carboxamide] | > 20 µM | 14.3 µM
4 | Cn1ncc(-c2ccc(C(=O)N(c3ncccc3Cl)[C@@H]3CCCNC3)cc2)c1C(=O)Nc1nnn[nH]1 [Example 24, 4-(4-{(3-chloropyridin-2-yl)[(3R)-piperidin-3-yl]carbamoyl}phenyl)-1-methyl-N-(1H-tetrazol-5-yl)-1H-pyrazole-5-carboxamide] | > 20 µM | 25.3 µM

Now from value to compound:

Row | IC50 (human PCSK9 [1]) | IC50 (human PCSK9 [2]) | Compound
5 | > 20 µM | 5.75 µM | Cn1ncc(-c2ccc(C(=O)N(c3ncccc3Cl)[C@@H]3CCCNC3)cc2)c1-c1nn[nH]n1 [Example 26, N-(3-chloropyridin-2-yl)-4-[1-methyl-5-(2H-tetrazol-5-yl)-1H-pyrazol-4-yl]-N-[(3R)-piperidin-3-yl]benzamide]
6 | > 20 µM | 3.8 µM | Cn1ncc(-c2ccc(C(=O)N(c3nccc4ccccc34)[C@@H]3CCCNC3)cc2)c1C(=O)O [Example 4, 4-(4-{isoquinolin-1-yl[(3R)-piperidin-3-yl]carbamoyl}phenyl)-1-methyl-1H-pyrazole-5-carboxylic acid]
7 | 1.7 µM | 0.69 µM | O=C(c1ccc(-c2cnn3cccnc23)cc1)N(c1ncccc1Cl)[C@@H]1CCCNC1 [Example 2, N-(3-chloropyridin-2-yl)-N-[(3R)-piperidin-3-yl]-4-(pyrazolo[1,5-a]pyrimidin-3-yl)benzamide]
8 | > 20 µM | 2.97 µM | Cn1ncc(-c2ccc(C(=O)N(c3ncccc3Cl)[C@@H]3CCCNC3)cc2)c1C(=O)NO [Example 25, 4-(4-{(3-chloropyridin-2-yl)[(3R)-piperidin-3-yl]carbamoyl}phenyl)-N-hydroxy-1-methyl-1H-pyrazole-5-carboxamide]
9 |  | 2.1 µM | CCOC(=O)OC(C)OC(=O)c1c(-c2ccc(C(=O)N(c3nccc4ccccc34)[C@@H]3CCCNC3)cc2)cnn1C (stereo partly drawn) [Example 11, 1-[(ethoxycarbonyl)oxy]ethyl 4-(4-{isoquinolin-1-yl[(3R)-piperidin-3-yl]carbamoyl}phenyl)-1-methyl-1H-pyrazole-5-carboxylate]
